Laboratory results taken from ChEMBL document CHEMBL1154554, “Ganomycins A and B, new antimicrobial farnesyl hydroquinones from the basidiomycete Ganoderma pfeifferi” (2000).
≈ marks a conversion by molar mass, not a printed value. Calls of active or inactive are those of the source. No cut-off for these calls is given here.

What was measured:
Micrococcus luteus [1] = assay: Antibacterial activity against Micrococcus flavus SBUG 16 after 18 hrs by broth microdilution method; format: functional
Staphylococcus aureus [2] = assay: Antibacterial activity against Staphylococcus aureus after 18 hrs by broth microdilution method; format: functional
Micrococcus luteus [3] = assay: Antibacterial activity against Micrococcus flavus SBUG 16 at 100 ug/disk after 48 hrs by agar diffusion method; format: functional; conditions: for zone of inhibition at 100 µg/disc: read-out: IZ
Staphylococcus aureus [4] = assay: Antibacterial activity against Staphylococcus aureus ATCC 29213 at 100 ug/disk after 18 hrs by agar diffusion method; format: functional; conditions: for zone of inhibition at 100 µg/disc: ATCC 29213, 18 h, read-out: IZ
Staphylococcus aureus [5] = assay: Antibacterial activity against Staphylococcus aureus ATCC 25923 at 100 ug/disk after 18 hrs by agar diffusion method; format: functional; conditions: for zone of inhibition at 100 µg/disc: ATCC 25923, 18 h, read-out: IZ
Serratia marcescens = assay: Antibacterial activity against sSerratia marcescens SBUG 9 at 100 ug/disk after 18 hrs by agar diffusion method; format: functional; conditions: for zone of inhibition at 100 µg/disc: read-out: IZ
Staphylococcus aureus [6] = assay: Antibacterial activity against Staphylococcus aureus SG511 at 100 ug/disk after 18 hrs by agar diffusion method; format: functional; conditions: for zone of inhibition at 100 µg/disc: read-out: IZ
Candida maltosa = assay: […] activity against Candida maltosa 100 ug/disk after 18 hrs by agar diffusion method; format: functional, organism-based
Pseudomonas aeruginosa = assay: Antibacterial activity against Pseudomonas aeruginosa ATCC 15442 at 100 ug/disk after 18 hrs by agar diffusion method; format: functional, organism-based
Escherichia coli = assay: Antibacterial activity against sEscherichia coli SBUG 13 at 100 ug/disk after 18 hrs by agar diffusion method; format: functional; conditions: for zone of inhibition at 100 µg/disc: read-out: IZ
Staphylococcus aureus [7] = assay: Antibacterial activity against Staphylococcus aureus ATCC 6538 at 100 ug/disk after 18 hrs by agar diffusion method; format: functional; conditions: for zone of inhibition at 100 µg/disc: ATCC 6538, 18 h, read-out: IZ
Candida albicans = assay: […] activity against Candida albicans at 100 ug/disk after 18 hrs by agar diffusion method; format: functional, organism-based
Proteus mirabilis = assay: Antibacterial activity against Proteus mirabilis SBUG 47 at 100 ug/disk after 18 hrs by agar diffusion method; format: functional; conditions: for zone of inhibition at 100 µg/disc: read-out: IZ
Bacillus subtilis = assay: Antibacterial activity against Bacillus subtilis SBUG 14 at 100 ug/disk after 18 hrs by agar diffusion method; format: functional; conditions: for zone of inhibition at 100 µg/disc: read-out: IZ

Row | MIC (Micrococcus luteus [1]) [µg/mL] | MIC (Staphylococcus aureus [2]) [µg/mL] | SMILES | zone of inhibition at 100 µg/disc (Micrococcus luteus [3]) [mm] | zone of inhibition at 100 µg/disc (Staphylococcus aureus [4]) [mm] | zone of inhibition at 100 µg/disc (Staphylococcus aureus [5]) [mm] | zone of inhibition at 100 µg/disc (Serratia marcescens) [mm] | zone of inhibition at 100 µg/disc (Staphylococcus aureus [6]) [mm] | Activity (Candida maltosa) | Activity (Pseudomonas aeruginosa) | zone of inhibition at 100 µg/disc (Escherichia coli) [mm] | zone of inhibition at 100 µg/disc (Staphylococcus aureus [7]) [mm] | Activity (Candida albicans) | zone of inhibition at 100 µg/disc (Proteus mirabilis) [mm] | zone of inhibition at 100 µg/disc (Bacillus subtilis) [mm] | further results
1 | 0.25 (≈ 0.715 µM) | 0.05 (≈ 0.143 µM) | CC1(C)S[C@@H]2[C@H](NC(=O)[C@H](N)c3ccccc3)C(=O)N2[C@H]1C(=O)O [AMPICILLIN] |  |  |  |  |  |  |  |  |  |  |  |  | 
2 | 2.5 (≈ 7.26 µM) | 25 (≈ 72.6 µM) | CC(C)=CCC/C(C)=C/CC/C(=C/Cc1cc(O)ccc1O)C(=O)O [GANOMYCIN B] | 26 | 18 | 17 | 16 | 24 | inactive | inactive | 5 | 20 | inactive | 15 | 15 | 
3 |  |  | COC1=C(OC)C(=O)C(C/C=C(\C)CC/C=C(\C)CC/C=C(\C)CC/C=C(\C)CC/C=C(\C)CC/C=C(\C)CC/C=C(\C)CC/C=C(\C)CC/C=C(\C)CCC=C(C)C)=C(C)C1=O |  |  |  |  |  |  | inactive |  |  |  |  |  | Activity (Micrococcus luteus [3]): inactive; Activity (Staphylococcus aureus [4]): inactive; Activity (Staphylococcus aureus [5]): inactive; Activity (Serratia marcescens): inactive; Activity (Staphylococcus aureus [6]): inactive; Activity (Escherichia coli): inactive; Activity (Staphylococcus aureus [7]): inactive; Activity (Proteus mirabilis): inactive; Activity (Bacillus subtilis): inactive
4 | 2.5 (≈ 6.94 µM) | 25 (≈ 69.4 µM) | C/C(=C\CC/C(C)=C/CC/C(=C/Cc1cc(O)ccc1O)C(=O)O)CO [GANOMYCIN A] | 25 | 16 | 15 | 15 | 24 | inactive | inactive | 4 | 19 | inactive | 15 | 16 | 
